Results as given in the supplement of paper PMC10307832.

Assays:
Assay in all cases: relative viability (nuclei count vs DMSO), 5 days (fraction); higher = more cells survive
NCI-H838 = tested on: NCI-H838
Method in brief: (§1)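 Nuclei were stained with Hoechst during a one-step fixation (final 0.05% Triton X-100, 1% formaldehyde, 1 ug/ml Hoechst) carried out 5 days after dosing, then counted on 4× images. The cells, lung cancer lines in 1536-well plates, had been dosed by pin tool the day after seeding with one drug alone or a fixed anchor-drug dose plus five library-drug doses (not always all listed) in √10 steps. Relative viability is the nuclei count in treated wells divided by that in vehicle wells, and each value is the median of duplicate plates.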

201T = tested on: 201T
Method in brief: as §1

NCI-H2342 = tested on: NCI-H2342
Method in brief: as §1

NCI-H2009 = tested on: NCI-H2009
Method in brief: as §1

NCI-H23 = tested on: NCI-H23
Method in brief: as §1

NCI-H2126 = tested on: NCI-H2126
Method in brief: as §1

NCI-H2405 = tested on: NCI-H2405
Method in brief: as §1

NCI-H661 = tested on: NCI-H661
Method in brief: as §1

NCI-H1355 = tested on: NCI-H1355
Method in brief: as §1

NCI-H322M = tested on: NCI-H322M
Method in brief: as §1

EPLC-272H = tested on: EPLC-272H
Method in brief: as §1

NCI-H1395 = tested on: NCI-H1395
Method in brief: as §1

NCI-H647 = tested on: NCI-H647
Method in brief: as §1

LCLC-97TM1 = tested on: LCLC-97TM1
Method in brief: as §1

PC-14 = tested on: PC-14
Method in brief: as §1

NCI-H2085 = tested on: NCI-H2085
Method in brief: as §1

HCC-15 = tested on: HCC-15
Method in brief: as §1

NCI-H2228 = tested on: NCI-H2228
Method in brief: as §1

BEN = tested on: BEN
Method in brief: as §1

LU99A = tested on: LU99A
Method in brief: as §1

NCI-H650 = tested on: NCI-H650
Method in brief: as §1

NCI-H460 = tested on: NCI-H460
Method in brief: as §1

`Cc1csc(=NC2CCCCC2)n1/N=C/c1ccc(O)c(O)c1O` [MIM1] + CCNC(=O)c1noc(-c2cc(C(C)C)c(O)cc2O)c1-c1ccc(CN2CCOCC2)cc1 [Luminespib] (partner 0.01 µM) showed a relative viability (NCI-H838; first compound 0.2 µM) of 0.372, a relative viability (NCI-H838; first compound 0.6325 µM) of 0.317 and a relative viability (NCI-H838; first compound 2 µM) of 0.288. The relative viability (NCI-H838; first compound 6.325 µM) was 0.267, the relative viability (NCI-H838; first compound 20 µM) was 0.16 and the relative viability (201T; first compound 0.2 µM) was 1.03. The relative viability (201T; first compound 0.6325 µM) was 1.05, the relative viability (201T; first compound 2 µM) was 1.03 and the relative viability (201T; first compound 6.325 µM) was 0.548. It also gave a relative viability (201T; first compound 20 µM) of 0.368, a relative viability (NCI-H2342; first compound 0.2 µM) of 0.739 and a relative viability (NCI-H2342; first compound 0.6325 µM) of 0.723. For the same compound, the relative viability (NCI-H2342; first compound 2 µM) was 0.642, the relative viability (NCI-H2342; first compound 6.325 µM) was 0.624 and the relative viability (NCI-H2342; first compound 20 µM) was 0.985. The relative viability (NCI-H2009; first compound 0.2 µM) was 1, the relative viability (NCI-H2009; first compound 0.6325 µM) was 1.06 and the relative viability (NCI-H2009; first compound 2 µM) was 1.03. It also gave a relative viability (NCI-H2009; first compound 6.325 µM) of 0.877, a relative viability (NCI-H2009; first compound 20 µM) of 1.02 and a relative viability (NCI-H23; first compound 0.2 µM) of 0.262. It also gave a relative viability (NCI-H23; first compound 0.6325 µM) of 0.208, a relative viability (NCI-H23; first compound 6.325 µM) of 0.198 and a relative viability (NCI-H23; first compound 20 µM) of 0.211. For the same compound, the relative viability (NCI-H2126; first compound 0.2 µM) was 0.891, the relative viability (NCI-H2126; first compound 0.6325 µM) was 0.943 and the relative viability (NCI-H2126; first compound 2 µM) was 0.957. For the same compound, the relative viability (NCI-H2126; first compound 6.325 µM) was 0.88, the relative viability (NCI-H2126; first compound 20 µM) was 0.466 and the relative viability (NCI-H2405; first compound 0.2 µM) was 0.68. For the same compound, the relative viability (NCI-H2405; first compound 0.6325 µM) was 0.92, the relative viability (NCI-H2405; first compound 2 µM) was 0.654 and the relative viability (NCI-H2405; first compound 6.325 µM) was 0.543. The relative viability (NCI-H2405; first compound 20 µM) was 0.403, the relative viability (NCI-H661; first compound 0.2 µM) was 0.92 and the relative viability (NCI-H661; first compound 0.6325 µM) was 0.928. For the same compound, the relative viability (NCI-H661; first compound 2 µM) was 0.86, the relative viability (NCI-H661; first compound 6.325 µM) was 0.576 and the relative viability (NCI-H661; first compound 20 µM) was 0.269. For the same compound, the relative viability (NCI-H1355; first compound 0.2 µM) was 0.698, the relative viability (NCI-H1355; first compound 0.6325 µM) was 0.591 and the relative viability (NCI-H1355; first compound 2 µM) was 0.726. The relative viability (NCI-H1355; first compound 6.325 µM) was 0.659, the relative viability (NCI-H1355; first compound 20 µM) was 0.391 and the relative viability (NCI-H322M; first compound 0.2 µM) was 0.837. The relative viability (NCI-H322M; first compound 0.6325 µM) was 0.771, the relative viability (NCI-H322M; first compound 2 µM) was 0.832 and the relative viability (NCI-H322M; first compound 6.325 µM) was 0.729. The relative viability (NCI-H322M; first compound 20 µM) was 0.31, the relative viability (EPLC-272H; first compound 0.2 µM) was 0.491 and the relative viability (EPLC-272H; first compound 0.6325 µM) was 0.266. The relative viability (EPLC-272H; first compound 2 µM) was 0.205, the relative viability (EPLC-272H; first compound 6.325 µM) was 0.143 and the relative viability (EPLC-272H; first compound 20 µM) was 0.122. For the same compound, the relative viability (NCI-H1395; first compound 0.2 µM) was 0.66, the relative viability (NCI-H1395; first compound 0.6325 µM) was 0.547 and the relative viability (NCI-H1395; first compound 2 µM) was 0.755. It also gave a relative viability (NCI-H1395; first compound 6.325 µM) of 0.573, a relative viability (NCI-H1395; first compound 20 µM) of 0.293 and a relative viability (NCI-H647; first compound 0.2 µM) of 0.147. The relative viability (NCI-H647; first compound 0.6325 µM) was 0.271, the relative viability (NCI-H647; first compound 2 µM) was 0.18 and the relative viability (NCI-H647; first compound 6.325 µM) was 0.198. For the same compound, the relative viability (NCI-H647; first compound 20 µM) was 0.0924, the relative viability (LCLC-97TM1; first compound 0.2 µM) was 0.783 and the relative viability (LCLC-97TM1; first compound 0.6325 µM) was 0.733. The relative viability (LCLC-97TM1; first compound 2 µM) was 0.755, the relative viability (LCLC-97TM1; first compound 6.325 µM) was 0.512 and the relative viability (LCLC-97TM1; first compound 20 µM) was 0.238. The relative viability (PC-14; first compound 0.2 µM) was 0.177, the relative viability (PC-14; first compound 0.6325 µM) was 0.137 and the relative viability (PC-14; first compound 2 µM) was 0.17. It also gave a relative viability (PC-14; first compound 6.325 µM) of 0.115, a relative viability (PC-14; first compound 20 µM) of 0.144 and a relative viability (NCI-H2085; first compound 0.2 µM) of 0.42. For the same compound, the relative viability (NCI-H2085; first compound 0.6325 µM) was 0.466, the relative viability (NCI-H2085; first compound 2 µM) was 0.455 and the relative viability (NCI-H2085; first compound 6.325 µM) was 0.442. The relative viability (NCI-H2085; first compound 20 µM) was 0.404, the relative viability (HCC-15; first compound 0.2 µM) was 0.244 and the relative viability (HCC-15; first compound 0.6325 µM) was 0.353. For the same compound, the relative viability (HCC-15; first compound 2 µM) was 0.43, the relative viability (HCC-15; first compound 6.325 µM) was 0.259 and the relative viability (HCC-15; first compound 20 µM) was 0.133. It also gave a relative viability (NCI-H2228; first compound 0.2 µM) of 0.18, a relative viability (NCI-H2228; first compound 0.6325 µM) of 0.155 and a relative viability (NCI-H2228; first compound 2 µM) of 0.181. For the same compound, the relative viability (NCI-H2228; first compound 6.325 µM) was 0.151, the relative viability (NCI-H2228; first compound 20 µM) was 0.111 and the relative viability (BEN; first compound 0.2 µM) was 0.249. For the same compound, the relative viability (BEN; first compound 0.6325 µM) was 1.24, the relative viability (BEN; first compound 2 µM) was 0.36 and the relative viability (BEN; first compound 6.325 µM) was 0.329. For the same compound, the relative viability (BEN; first compound 20 µM) was 0.173, the relative viability (LU99A; first compound 0.2 µM) was 0.227 and the relative viability (LU99A; first compound 0.6325 µM) was 0.317. The relative viability (LU99A; first compound 2 µM) was 0.26, the relative viability (LU99A; first compound 6.325 µM) was 0.308 and the relative viability (LU99A; first compound 20 µM) was 0.219. For the same compound, the relative viability (NCI-H650; first compound 0.2 µM) was 0.822, the relative viability (NCI-H650; first compound 0.6325 µM) was 0.619 and the relative viability (NCI-H650; first compound 2 µM) was 0.85. For the same compound, the relative viability (NCI-H650; first compound 6.325 µM) was 0.704, the relative viability (NCI-H650; first compound 20 µM) was 0.288 and the relative viability (NCI-H460; first compound 0.2 µM) was 0.0272. The relative viability (NCI-H460; first compound 0.6325 µM) was 0.0322, the relative viability (NCI-H460; first compound 2 µM) was 0.0432 and the relative viability (NCI-H460; first compound 6.325 µM) was 0.0284. The relative viability (NCI-H460; first compound 20 µM) was 0.0278.
